Assay results taken from BindingDB's records for doi:10.1016/S0960-894X(01)80876-3 (1993).

Assay: Ability to inhibit blood platelet aggregation of human platelet-rich plasma induced by TP-receptor agonist U 46619

Row | Structure (SMILES) | IC50 [µM]
1 | O=C(O)CCC/C=C1/C[C@H]2C[C@@H](O)[C@H](C=NNC(=O)Nc3ccccc3)[C@H]2C1 | 0.1
2 | O=C(O)COC/C=C1\C[C@H]2C[C@@H](O)[C@H](C=NNC(=O)Nc3ccccc3)[C@H]2C1 | 6
3 | O=C(O)COC/C=C1/C[C@H]2C[C@@H](O)[C@H](C=NNC(=O)Nc3ccccc3)[C@H]2C1 | 1.4
4 | O=C(O)CCC/C=C1/CC2CCC([CH+][N-]NC(=O)Nc3ccc([N+](=O)[O-])cc3)C2C1 (stereo unspecified) | 0.58
5 | O=C(O)CCC/C=C1/CC2CC(O)C([CH+][N-]NC(=O)Nc3ccc([N+](=O)[O-])cc3)C2C1 (stereo unspecified) | 0.05
6 | O=C(O)CC/C=C1\CC2CC(O)C([CH+][N-]NC(=O)Nc3ccc([N+](=O)[O-])cc3)C2C1 (stereo unspecified) | 0.52
7 | O=C(O)CC/C=C1\C[C@H]2C[C@@H](O)[C@H](C=NNC(=O)Nc3ccccc3)[C@H]2C1 | 26
8 | O=C(O)COC/C=C1\C[C@H]2C[C@@H](O)[C@H](C=NNC(=O)Nc3cccc(Cl)c3)[C@H]2C1 | 1.6

Other lines, results leading:

Row | IC50 [µM] | Structure (SMILES)
9 | 0.2 | O=C(O)CCC/C=C1\C[C@H]2C[C@@H](O)[C@H](C=NNC(=O)Nc3ccc(Cl)c(Cl)c3)[C@H]2C1
10 | 1.8 | O=C(O)CCC/C=C1/C[C@H]2CC[C@H](C=NNC(=O)Nc3ccc(Cl)c(Cl)c3)[C@H]2C1
11 | 5.2 | O=C(O)CC/C=C1\C[C@H]2C[C@@H](O)[C@H](C=NNC(=O)Nc3cccc(Cl)c3)[C@H]2C1
12 | 0.13 | O=C(O)CCC/C=C1\C[C@H]2C[C@@H](O)[C@H](C=NNC(=O)Nc3cccc(Cl)c3)[C@H]2C1
13 | 9 | O=C(O)CCC/C=C1\C[C@H]2CC[C@H](C=NNC(=O)Nc3ccc(Cl)c(Cl)c3)[C@H]2C1
14 | 2.3 | O=C(O)CCC/C=C1/C[C@H]2CC[C@H](C=NNC(=O)Nc3ccccc3)[C@H]2C1
15 | 12 | O=C(O)CCC/C=C1\C[C@H]2CC[C@H](C=NNC(=O)Nc3ccccc3)[C@H]2C1
16 | 6.5 | O=C(O)CCC/C=C1\C[C@H]2CC[C@H](C=NNC(=O)Nc3cccc(Cl)c3)[C@H]2C1
